Where “and” joins values, the source holds several entries; their conditions need not be identical. Identical values can stand only once. Entries after “also recorded” stand apart in the source; their conditions may differ.
Legend:
[1] = system: native rabbit intestinal tissue; assay: Electrical field stimulation induced relaxation, real-time force generation
[2] = system: native rabbit intestinal tissue
[3] = system: native rabbit intestinal tissue; remark: listed apart in the source
[4] = system: tissue engineered innervated intestinal smooth muscle sheets; assay: Electrical field stimulation induced relaxation, real-time force generation; type: cell-based, rabbit
[5] = system: tissue engineered innervated intestinal smooth muscle sheets; type: cell-based, rabbit

## [D-p-Cl-Phe6, Leu17]-Vasoactive Intestinal Peptide [VIP-Ra]
[1]; VIP-Ra 2 μM pre-treatment
  inhibition of EFS-induced relaxation with VIP-Ra: 73.32±3.23%

## COC(=O)[C@@H](N)CCCNC(=N)N[N+](=O)[O-].Cl [L-NAME, Nω-Nitro-L-arginine methyl ester hydrochloride]
[1]; L-NAME 300 μM pre-treatment, hydrochloride
  inhibition of EFS-induced relaxation with L-NAME: 78±2.9% and ~78%
[1]; Oryctolagus cuniculus, L-NAME 300 μM pre-treatment, read-out: inhibition of EFS-induced relaxation with L-NAME
  inhibition at 300 µM: 78 ± 2.85%

## [Cl-].[K+] [KCl, Potassium chloride]
[2]
  peak KCl-induced contraction: 373.5±10.63 μN and 373.3±10.63 μN

## CC(=O)OCC[N+](C)(C)C [Ach, Acetylcholine]
[3]; 1 μM Ach, native tissue
  area under the curve of Ach-induced contraction: 70448±5876 AU
  peak Ach-induced contraction: 342.6±3.15 μN

## NC1=N[C@H](O)[C@H]2[C@H]3O[C@]4(O)O[C@@H]([C@@H](O)[C@@]2(N1)[C@@H]4O)[C@]3(O)CO [TTX, tetrodotoxin]
[4]
  effect of TTX pre-treatment on EFS-induced relaxation: inhibited entirely
[5]
  effect of TTX pre-treatment on KCl-induced contraction: unaffected; also recorded: did not inhibit
[3]
  inhibition of Ach-induced contraction with TTX: 72.73±3.66% and 72.73±3.7%

— patent US10377985B2, “Neural progenitor cell differentiation” (priority 2013, dated 2019)
